The values that follow come from patent US20130280343A1, “Food Products Derived From Cannabinoid-Administered Livestock” (priority 2012, published 2013).

One data set relates to mice. The settings on record: orally administered; cited from earlier work.
Data set [1] relates to mice injected with 5-Hydroxytryptamine (a nociceptive agent). The note with it: orally administered; cited from earlier work.
Data set [2] can be described thus: accumulation of Δ^9-THC in milk of dairy water buffalo grazing Cannabis indica Himalaya Gold. In kind it is in vivo. The settings on record: roughly 400 g Δ^9-THC orally per day, 20 L milk per day. An excerpt:
In a second embodiment of the present invention, dairy water buffalo are grazed in a pasture cultivated for their consumption which contains cereals, legumes, and Cannabis indica “Himalaya Gold” (a hardy, outdoor cultivar of Cannabis). The approximate Δ^9-THC, CBN, and CBD levels of the Himalaya Gold Cannabis cultivar are 10.0%, 1.0%, and 0.3%, respectively. The animals are left to graze according to their preference, and all three types of plants are consumed in significant quantity. Particularly, the water buffalo consume about 32 kg of raw plant material per day, of which an average of 4 kg is Cannabis. Thus, roughly 400 g of Δ^9-THC is orally administered to the animals each day.
The cannabinoids present in the Himalaya Gold Cannabis induce physiological effects which affect the composition of the water buffalo's milk. More specifically, several fat-soluble cannabinoids, including Δ^9-THC and 11-Hydroxy-Δ^9-tetrahydrocannabinol (11-OH-Δ^9-THC; an active metabolite of Δ^9-THC), accumulate in the milk during lactogenesis. The cannabinoid-containing raw milk is then harvested from the water buffalo by use of a rotary parlor milking station. […]

Data set [3] has as its system humans. Put plainly: lowest observed effect level (LOEL) for psychoactive effects in humans. In kind it is in vivo. The settings on record: orally administered. On the procedure:
Contrasting their extremely low toxicity, cannabinoids generally have very low effective doses. […] In humans, the lowest observed effect level (LOEL) for psychoactive effects induced by orally administered Δ^9-THC is 0.04 mg/kg, or 3.2 mg for the average 80 kg adult human. As a result, the therapeutic indices (LD50/ED50) of most cannabinoids are astoundingly high. It would be extremely difficult, if not impossible, for a human or animal to suffer permanent damage due to an intake of cannabinoids, absent a targeted effort to cause such damage.

Data set [4] relates to humans. The note with it: orally administered; cited from earlier work.
A short description of data set [5]: accumulation of Δ^9-THC in adipose tissue of finishing hogs given Cannabis tincture in water. The note with it: 100 mg Δ^9-THC orally each day.
In data set [6] the test system is free range broiler chickens. Put plainly: dimethylheptylpyran capsules orally administered to free range broiler chickens. The settings on record: 1 μg in cod liver oil capsules, twice-daily oral. The data set is classed as in vivo. As to the method: In a final embodiment of the present invention, soft gel capsules containing 1 μg of dimethylheptylpyran dissolved in cod liver oil are twice-daily orally administered to free range broiler chickens. Dimethylheptylpyran is an extremely potent cannabinoid receptor agonist.

As for `C=C(C)[C@@H]1CCC(C)=C[C@H]1c1c(O)cc(CCCCC)cc1O` [CBD, cannabidiol], the “median lethal dose (LD50)” value with mice was 13,500 mg/kg.
Consider `CCCCCc1cc(O)c2c(c1)OC(C)(C)c1ccc(C)cc1-2` [CBN, cannabinol], for which the “median lethal dose (LD50)” value in the data set with mice is 12,700 mg/kg. Moreover, in data set [1], the “median effective dose (ED50) for antinociception” value is 46.2 mg/kg.
As to `[Cl-].[Na+]` [sodium chloride], the “median lethal dose (LD50)” value in the data set with mice is given as 4,000 mg/kg.
On to `CCCCCc1cc(O)c2c(c1)OC(C)(C)[C@@H]1CCC(C)=C[C@@H]21` [Δ^9-THC, delta-9-tetrahydrocannabinol], for which, in data set [2], the “average transfer rate into milk” value is 0.15% and the “Δ^9-THC content of milk” value was “around 30 mg per L”. Moreover, the “LOEL for psychoactive effects, for the average 80 kg adult human” value in the data set on humans [3] is listed as 3.2 mg. For the same compound, the “median lethal dose (LD50)” value with mice is given as 21,600 mg/kg. Also, the “lowest observed effect level (LOEL) for psychoactive effects” value in the data set on humans [4] is reported as 0.04 mg/kg. Also, the “median effective dose (ED50) for antinociception” value in data set [1] was 1.0 mg/kg. In data set [5], the “average storage rate in adipose tissue” value is recorded as 0.1%.
`CCCCCC(C)C(C)c1cc(O)c2c(c1)OC(C)(C)C1=C2CC(C)CC1` (stereo not shown) [dimethylheptylpyran]: in data set [6], the calming effect entry was “significantly calms the chickens” and the “effect on aggressive behavior” value is given as “inhibits aggressive behavior”.
